Literature values, collected in publication PMC10747602, “Dose Response, Dosimetric, and Metabolic Evaluations of Replacement PFAS Perfluoro-(2,5,8-trimethyl-3,6,9-trioxadodecanoic) Acid (HFPO-TeA)” (Toxics, 2023).
Like-named read-outs stand apart in the source and are kept apart here.

Tests used:
[1] = parameters: method as in PMID 18661093; conditions: male rats, 5 mg/kg/day orally for 28 days; cited from earlier work
[2] = male mice, 2.5 mg/kg/day orally for 28 days; cited from earlier work
[3] = parameters: method as in PMID 21948869, PMID 36309054; conditions: cited from earlier work

**Q.** Which Kp [1] does the source give for `O=C(O)C(F)(F)C(F)(F)C(F)(F)C(F)(F)C(F)(F)C(F)(F)C(F)(F)F` [PFOA, perfluorooctanoic acid] here?
**A.** 5.88

**Q.** And the Kp [2]?
**A.** 1.54

**Q.** And the “underestimation of Css values by previous IVIVE evaluations” value [3]?
**A.** > 100 ×
